Laboratory results taken from patent publication US20250057959A1, “PHOSPHANE GOLD(I)-N-HETEROCYCLIC CARBENE COMPLEXES FOR TREATING CANCER” (KING FAHD UNIVERSITY OF PETROLEUM AND MINERALS, priority 2023, published 2025).

How the values were obtained:
Format in all cases: cell-based, human
A2780 = experiment: MTT cell viability assay, A2780; conditions: for IC50: 72 hours treatment, MTT; for Activity compared with cisplatin or auranofin in A2780 cells: comparison of IC50, Table 8
From the text: (§1) Human epithelial ovarian cancer A2780 cell line and its cisplatin-resistant clone A2780cis were obtained from Sigma-Aldrich (Milano, Italy). SKOV3 (HTB-77) cells were from the American Type Culture Collection (ATCC). The two cell lines were selected to reflect the two different stages of OvCa and different sensitivity to cisplatin. A2780 cell lines were derived from the ovarian tumor tissue of an untreated patient, while SKOV3 was from the ascitic fluids (after metastasis). Cells were authenticated in the laboratory using PowerPlex 16 HS system (Promega) and GeneMapper ID version 3.2.1 to identify DNA short tandem repeats. Cell lines were cultured in RPMI-1640 medium containing 10% fetal bovine serum (FBS) (Gibco, Thermo Fisher Scientific, U.S.A), 1% (v/v) of penicillin (10,000 units/mL)-streptomycin (10 mg/mL), and 1% (v/v) L-glutamine (200 mM) (all from Sigma- Aldrich) at 37° C. in a 5% CO2 fully humidified atmosphere. A2780cis cells were continuously exposed to 1 μM cisplatin to maintain cisplatin resistance. Adipose-derived stem cells (ADSCs) were purchased from Lonza and maintained in mesenchymal-stem-cell growth medium Bulletkit MSCGM (Lonza, Verviers, Belgium).
(§2) 4.0×10^3/mL A2780, A2780cis, and SKOV3 cells were seeded in 96-well microplates in 100 μL of culture medium. Cells were allowed to adhere for 24 hours and then were treated in triplicate with increasing concentrations of gold compounds (0-1 μM). Cisplatin was included as a reference drug. Cell viability was evaluated using 3-(4,5-dimethylthiazol-2-yl)-2,5-diphenyltetrazolium bromide (MTT) assay (Sigma-Aldrich) after 72 hours of treatment. Half maximal inhibitory concentrations (IC50) were calculated using the CalcuSyn software version 2 (Biosoft, Ferguson, MO, USA). Fold resistance was calculated as the ratio of the IC50 of the A2780cis to that of the parental cell line A2780.

A2780cis [1] = experiment: MTT cell viability assay, cisplatin-resistant A2780cis; conditions: for IC50: 72 hours treatment, MTT; for Fold resistance (A2780cis/A2780): IC50 A2780cis/IC50 A2780
From the text: Human epithelial ovarian cancer A2780 cell line and its cisplatin-resistant clone A2780cis were obtained from Sigma-Aldrich (Milano, Italy). SKOV3 (HTB-77) cells were from the American Type Culture Collection (ATCC). The two cell lines were selected to reflect the two different stages of OvCa and different sensitivity to cisplatin. A2780 cell lines were derived from the ovarian tumor tissue of an untreated patient, while SKOV3 was from the ascitic fluids (after metastasis). […] Cell lines were cultured in RPMI-1640 medium containing 10% fetal bovine serum (FBS) (Gibco, Thermo Fisher Scientific, U.S.A), 1% (v/v) of penicillin (10,000 units/mL)-streptomycin (10 mg/mL), and 1% (v/v) L-glutamine (200 mM) (all from Sigma- Aldrich) at 37° C. in a 5% CO2 fully humidified atmosphere. […] Cisplatin was included as a reference drug. […] Fold resistance was calculated as the ratio of the IC50 of the A2780cis to that of the parental cell line A2780.

SKOV3 cells = experiment: MTT cell viability assay, SKOV3; conditions: 72 hours treatment
From the text: as §1, §2

A2780 and A2780cis cells [2] = experiment: Apoptosis by flow cytometry (annexin-V/7AAD, caspase-3,7, BAX, Bcl-2); conditions: 48 hours; complex 6 and auranofin at IC50 and IC75, cisplatin 0.15 μM and 0.50 μM
Experimental: (§3) Results were detected by flow cytometry on a BD FACSCanto II flow cytometer. Data were analyzed using BD FACSDiva version 8.0.1 software (BD Biosciences) unless otherwise indicated. To evaluate apoptosis, tumor cells were treated for 48 hours and then stained for 15 minutes with FITC annexin-V (Thermo Fisher Scientific) and 7AAD (BD Pharmingen). […] For B-cell lymphoma/leukemia-2 (Bcl-2) and Bcl-2 associated x protein (Bax) evaluation, cells were fixed and permeabilized using FIX & PERM cell fixation and cell permeabilization kit (Life Technologies). […] The distribution of cells in different cell cycle phases was quantified using ModFit LT 4.0 software (Verity Software House, Topsham, ME, USA).

A2780 cells [3] = experiment: ROS generation (MitoSOX red), flow cytometry, A2780; conditions: cisplatin 0.50 μM; from 6.4%
Experimental: 2.0×10^5/mL A2780 and A2780cis cells were seeded in 6-well plates in complete medium and treated with complex 6 (0.15 μM and 0.5 μM). Results were detected by flow cytometry on a BD FACSCanto II flow cytometer. Data were analyzed using BD FACSDiva version 8.0.1 software (BD Biosciences) unless otherwise indicated. To evaluate apoptosis, tumor cells were treated for 48 hours and then stained for 15 minutes with FITC annexin-V (Thermo Fisher Scientific) and 7AAD (BD Pharmingen). […] For B-cell lymphoma/leukemia-2 (Bcl-2) and Bcl-2 associated x protein (Bax) evaluation, cells were fixed and permeabilized using FIX & PERM cell fixation and cell permeabilization kit (Life Technologies). For ROS generation, cells were stained with 5 μM MitoSOX red mitochondrial superoxide indicator (ThermoFisher Scientific) in a working solution for 30 minutes at 37° C. Cell cycle analysis was performed after 24 hours treatment with complex 6. Cells were harvested, fixed in cold 70% ethanol for 15 minutes, and stained with propidium iodide (PI) solution ([…] PI, 0.1% NP-40, 100 µg/mL PureLink RNase A, 0.1% sodium citrate) for 1 hour. The distribution of cells in different cell cycle phases was quantified using ModFit LT 4.0 software (Verity Software House, Topsham, ME, USA).

A2780 and A2780cis cells [4] = experiment: DNA double-strand breaks, γ-H2AX western blot
Experimental: Whole-cell lysates were prepared using cold RIPA buffer [150 mM NaCl, 50 mM Tris-HCl (pH 8), 0.1% SDS, 1% Igepal, and 0.5% desoxycholate sodium] containing a protease inhibitor cocktail (Roche Diagnostics S.p.a., Milan, Italy), phosphatase inhibitors 1 mM Na3VO4 and 1 mM NaF (Sigma-Aldrich). Protein concentrations were determined using the BioRad protein assay (Bio-Rad Laboratories, Inc., CA, USA). Equal amounts of proteins were mixed with Laemmli buffer, separated in 4-20% SDS-PAGE (Criterion Precast Gel, BioRad), and blotted onto a nitrocellulose membrane (Amersham, GE Healthcare). Membrane strips were blocked with EveryBilot blocking buffer (Bio-Rad) and incubated at 4° C. overnight with primary antibodies probed with the appropriate antibodies (Table 2) and developed using Immobilon Western chemioluminescent HRP substrate. Images were acquired using a ChemiDoc XRS system (Bio-Rad).

A2780 cells [5] = experiment: Cell cycle analysis (PI, flow cytometry), A2780; conditions: for Effect on cell cycle phases: A2780, 24 hours, auranofin 0.5 μM (IC50), cisplatin 0.50 μM
Experimental: as §3

SKOV3-MCTSs = experiment: SKOV3-MCTS spheroid volume
Experimental: To generate single spheroids with defined size, 1.0×10^3/mL SKOV3 cells were seeded 4 days under nonadherent conditions in U-bottom 96-well plates coated twice with 20 mg/mL of poly(2-hydroxyethyl methacrylate) (poly-HEMA; Sigma) in 95% ethanol. Spheroid size was measured at days 0, 3, and 7 after drug treatment initiation using an inverted microscope (Eclipse TS/100, Nikon, Tokyo, Japan) with photomicrographic systems DS camera control unit DS-L2. Spheroid volumes were calculated using the formula (width^2×length×3.14)/6.

A2780 and A2780cis cells [6] = experiment: mitROS generation (MitoSOX red), flow cytometry
Experimental: as §3

A2780cis [7] = experiment: Cell cycle analysis (PI, flow cytometry), A2780cis; conditions: 24 hours
Experimental: as §3

| SMILES | IC50 (A2780) [nM] | IC50 (A2780cis [1]) [nM] | Fold resistance (A2780cis/A2780) (A2780cis [1]) | Activity compared with cisplatin or auranofin in A2780 cells (A2780) | other results |
| --- | --- | --- | --- | --- | --- |
| CC(C)c1cccc(C(C)C)c1-n1ccn(-c2c(C(C)C)cccc2C(C)C)[c]1=[Au+][PH](CCCN)(c1ccccc1)c1ccccc1.F[P-](F)(F)(F)(F)F [Complex 7, [Au(IPr)(C15H18NP)] PF6] | 1420 ± 120 | 1800 ± 150 | 1.27 |  |  |
| CC(C)c1cccc(C(C)C)c1-n1ccn(-c2c(C(C)C)cccc2C(C)C)[c]1=[Au+][PH](CCC#N)(CCC#N)c1ccccc1.F[P-](F)(F)(F)(F)F [Complex 1, [Au(IPr)(C12H13N2P)] PF6] | 2000 ± 190 | 3550 ± 350 | 1.78 |  |  |
| N.N.[Cl][Pt][Cl] [Cisplatin, reference compound] | 1500 | 10400 | 6.93 |  | IC50 (SKOV3 cells): 5.4 µM; Apoptosis (annexin-V / 7AAD positive cells) (A2780 and A2780cis cells [2]): did not induce apoptosis; ROS generation (positive cells) (A2780 cells [3]): 17.4%; DNA double-strand breaks (γH2AX) (A2780 and A2780cis cells [4]): did not induce; Effect on cell cycle phases (A2780 cells [5]): slight increase of the G2/M phase; Decrease of SKOV3-MCTS growth with respect to control (SKOV3-MCTSs; 1 μM, 7 days): 16% |
| CC(C)c1cccc(C(C)C)c1-n1ccn(-c2c(C(C)C)cccc2C(C)C)[c]1=[Au+][PH](c1ccccc1)(c1ccccc1)[C@@H]1CCCC[C@H]1N.F[P-](F)(F)(F)(F)F [Complex 2, [Au(IPr)(C18H22NP)] PF6] | 500 ± 40 | 800 ± 40 | 1.6 | more active than cisplatin |  |
| CC(C)c1cccc(C(C)C)c1-n1ccn(-c2c(C(C)C)cccc2C(C)C)[c]1=[Au+][PH](CC(N)C(C)(C)C)(c1ccccc1)c1ccccc1.F[P-](F)(F)(F)(F)F (stereo not shown) [Complex 5, [Au(IPr)(C18H24NP)] PF6] | 750 ± 70 | 920 ± 80 | 1.23 | more active than cisplatin |  |
| CC(C)c1cccc(C(C)C)c1-n1ccn(-c2c(C(C)C)cccc2C(C)C)[c]1=[Au+][PH](c1ccccc1)(c1ccccc1)C(c1ccccc1)C(N)c1ccccc1.F[P-](F)(F)(F)(F)F (stereo not shown) [Complex 3, [Au(IPr)(C26H24NP)] PF6] | 780 ± 60 | 1140 ± 100 | 1.46 | more active than cisplatin |  |
| CC[PH](CC)(CC)[Au][S][C@@H]1O[C@H](COC(C)=O)[C@@H](OC(C)=O)[C@H](OC(C)=O)[C@H]1OC(C)=O [Auranofin, (2,3,4,6-tetra-O-acetyl-L-thio-β-D-glycopyranosato-S-)-(triethylphosphane)gold(I), reference compound] | 510 ± 70 | 1910 ± 220 | 3.7 |  | IC50 (A2780; listed as auranofin): 500 nM; IC50 (A2780cis [1]; listed as auranofin): 1900 nM; IC50 (SKOV3 cells): 2.3 µM; Apoptosis (annexin-V / 7AAD positive cells) (A2780 and A2780cis cells [2]): less active in inducing apoptosis in cisplatin-resistant A2780cis than in A2780 cells; mitROS generation (A2780 and A2780cis cells [6]): induced ROS generation; DNA double-strand breaks (γH2AX) (A2780 and A2780cis cells [4]): induced; sub-G0/G1 phase (DNA fragmentation) (A2780 cells [5]; A2780, 0.8 μM (IC75), 24 hours): 11%; Effect on cell cycle phases (A2780 cells [5]): decreased the G1 phase; sub-G0/G1 phase (DNA fragmentation) (A2780cis [7]; 2.5 μM (IC75)): 1.7%; Effect on cell cycle phases (A2780cis [7]): slightly decreased the G1 phase and increased the S phase; Effect on SKOV3-MCTSs at 1 μM (SKOV3-MCTSs; 1 μM): did not reduce SKOV3-MCTS volume; Concentration at which SKOV3-MCTS growth inhibition was seen (SKOV3-MCTSs; 72 hours): higher than 5 μM |
| CC(C)c1cccc(C(C)C)c1-n1ccn(-c2c(C(C)C)cccc2C(C)C)[c]1=[Au+][PH](CC(N)c1ccccc1)(c1ccccc1)c1ccccc1.F[P-](F)(F)(F)(F)F (stereo not shown) [Complex 4, [Au(IPr)(C20H20NP)] PF6] | 820 ± 50 | 1170 ± 150 | 1.43 | more active than cisplatin |  |
